Structures can show the parent of a compound that is named as a salt. Marks after values point to notes of the source that are not given here.
Assays:
[1] = system: acute lung injury in mice induced by oleic acid; assay: acute lung injury test in mouse (oleic acid-induced, histological grading of lung pathology); type: in vivo, KM mice; settings: for protective effect against acute lung injury in mice induced by oleic acid: compared with the model control group (P<0.05 or P<0.01), 40 mg/kg free base i.v.; for Overall lung pathology score: group sum, weighted (alveolar wall thickening x 1, inflammatory cell infiltration x 1, lung tissue necrosis x 3), 40 mg/kg free base i.v. once a day for 4 times, model control 81, normal control 21; for Alveolar wall thickening Level 0 / Inflammatory cell infiltration Level 0 / Lung tissue necrosis Level 0: number of mice (11 per group) at score 0 (No pathological change); for Alveolar wall thickening Level 0 / Inflammatory cell infiltration Level 0 / Lung tissue necrosis Level 0 / Alveolar wall thickening Level 1 / Inflammatory cell infiltration Level 1 / Lung tissue necrosis Level 1 / Alveolar wall thickening Level 2 / Inflammatory cell infiltration Level 2 / Lung tissue necrosis Level 2 / Alveolar wall thickening Level 3 / Inflammatory cell infiltration Level 3 / Lung tissue necrosis Level 3 / Alveolar wall thickening Level 4 / Inflammatory cell infiltration Level 4 / Lung tissue necrosis Level 4: 40 mg/kg in terms of free base, intravenously once a day for 4 times, oleic acid 300 mg/kg i.v.; for Alveolar wall thickening Level 1 / Inflammatory cell infiltration Level 1 / Lung tissue necrosis Level 1: number of mice (11 per group) at score 1 (Occasional); for Alveolar wall thickening Level 2 / Inflammatory cell infiltration Level 2 / Lung tissue necrosis Level 2: number of mice (11 per group) at score 2 (Mild); for Alveolar wall thickening Level 3 / Inflammatory cell infiltration Level 3 / Lung tissue necrosis Level 3: number of mice (11 per group) at score 3 (Moderate); for Alveolar wall thickening Level 4 / Inflammatory cell infiltration Level 4 / Lung tissue necrosis Level 4: number of mice (11 per group) at score 4 (Severe)
Experimental: KM mice, weighing 18-22g, with all 66 being males, were used and randomly grouped into a normal control group, a model control group, a Formula I compound group (40 mg/kg, in terms of free base), a Formula V compound group (40 mg/kg, in terms of free base), a Comparative Example group (40 mg/kg, in terms of free base), and an ambroxol hydrochloride group (40 mg/kg, in terms of free base), 11 animals in each group, and each group was administered intravenously (dissolved in normal saline by adjusting pH or directly dissolved in normal saline) once a day for 4 times, while the model control group and the normal control group were given an equivalent amount of normal saline. 30 minutes after the last administration, except for the normal control group, all other mice were administered 300 mg/kg oleic acid intravenously (prepared into the desired concentration with sterile saline containing 0.1% […] immediately before use), and the vehicle control group was given an equivalent volume of 0.1% BSA saline. The mice were sacrificed 4 hours after the last administration, and the right lobes of the lungs were removed and fixed in a 10% formaldehyde solution. After dehydration, embedding in paraffin, dissection, and staining with HE, they were observed under a microscope for pathological changes of the lung tissues. Here, the medicament used for the Comparative Example group was the 4-[(2-amino-3,5-dibromobenzyl)amino]adamantan-1-ol hydrochloride (racemic) prepared in Comparative Example 1. Table 1. Criteria for histological grading of lung injury
The above indicators are multiplied by different weighting numbers depending on the significance of the pathology (alveolar wall thickening × 1, inflammatory cell infiltration × 1, lung tissue necrosis × 3), and finally added up to obtain an overall lung pathology score. Table 2. Test results of lung pathologies of each group

[2] = system: expectoration amount by rat capillary tube expectoration; assay: rat capillary sputum excretion test; type: in vivo, SD rats; settings: length of liquid in capillary tube within 90 minutes, 15 mg/kg in terms of free base via tail vein, 30 minutes after administration, n=10, vehicle control 22.7±4.41
Experimental: 180-220g SD rats of both sexes were used and divided into random groups, with 10 rats in each group, namely a vehicle control group, a Formula I compound group (15 mg/kg, in terms of free base), a Formula V compound group (15 mg/kg, in terms of free base), a Comparative Example group (15 mg/kg, in terms of free base) and ambroxol hydrochloride (15 mg/kg, in terms of free base). The rats were fasted and restrained from water for 12 hours before testing the amount of sputum excretion, and administered the respective medicaments via the tail vein (dissolved in normal saline by adjusting pH or directly dissolved in normal saline). 30 minutes after the administration, they were anesthetized by intraperitoneally injecting 1g/kg of a urethane solution in saline, fixed in supine position, and the trachea was separated after cutting through neck skin. A small hole was pierced by using a syringe needle between the two cartilage rings on the lower edge of the thyroid cartilage, and a capillary tube (with an inner diameter of 0.8mm, and a length of 10cm) was inserted centripetally into the trachea. Sputum was collected while adjusting the angle between the capillary tube and the trachea, and the total number of the length of liquids in the capillary tube (mm) was used to evaluate the expectoration effect. The amount of expectoration of the rats within 90 minutes was recorded. Here, the medicament used for the Comparative Example group was the 4-[(2-amino-3,5-dibromobenzyl)amino]adamantan-1-ol hydrochloride (racemic) prepared in Comparative Example 1. Table 4. Results of the effect on the expectoration amount by rat capillary tube expectoration

[3] = system: tracheal phenol red secretion in mice; assay: phenol red expectoration test in mice; type: in vivo; settings: colorimetric measurement at 546nm; 30 mg/kg in terms of free base via tail vein 2 times in a row; x ± s, n=12; control 0.095±0.022
Experimental: Experimental method: 60 mice of both sexes were used and randomly divided into a control (normal saline) group, a Formula I compound group (30 mg/kg, in terms of free base), a Formula V compound group (30 mg/kg, in terms of free base), a Comparative Example group (30 mg/kg, in terms of free base) and ambroxol hydrochloride (30 mg/kg, in terms of free base), 12 rats in each group; the respective medicaments were administered via the tail vein (dissolved in normal saline by adjusting pH or directly dissolved in normal saline) 2 times in a row. 15 minutes after the last administration to the mice, a 5% phenol red solution in normal saline (0.5g/kg) was subcutaneously injected. After 30 minutes, the mice were sacrificed and a section of the trachea was cut from below the thyroid cartilage to the trachea branch. The section was placed in a test tube containing 1 mL of normal saline, shaken and soaked for 30 minutes, and then centrifuged for 10 minutes (3000 r/min). The supernatant was transferred to another test tube, 0.1 mL of 1M NaOH solution was added, and shaken uniformly for a colorimetric measurement at 546nm. The effects of each group on the tracheal phenol red secretion in mice were statistically compared, and the experimental results obtained are shown in Table 5 below. Here, the medicament used for the Comparative Example group was the 4-[(2-amino-3,5-dibromobenzyl)amino]adamantan-1-ol hydrochloride (racemic) prepared in Comparative Example 1. Table 5. Effects on tracheal phenol red secretion in mice (x ± s)

[4] = system: ammonia-induced coughing response in mice; assay: cough response of mice induced by ammonia water; type: in vivo, KM mice; settings: for reduction of the number of coughs: compared with the model control group (P<0.05 or P<0.01), 15 mg/kg free base i.v.; for Number of coughs (times): within 3 minutes after concentrated ammonia, 15 mg/kg in terms of free base i.v., 30 minutes after administration, x ± s, n=10, model control 41.7±8.76
Experimental: 50 KM mice, weighing 18-22g, of both sexes were used and randomly divided into 5 groups, a model control group, a Formula I compound group (15 mg/kg, in terms of free base), a Formula V compound group (15 mg/kg, in terms of free base), a Comparative Example group (15 mg/kg, in terms of free base), and an ambroxol hydrochloride group (15 mg/kg, in terms of free base), 10 animals in each group, and were administered intravenously (dissolved in normal saline by adjusting pH or directly dissolved in normal saline). 30 minutes after the administration, the mice were put in an inverted beaker with a volume of 500ml and a cotton ball inside. Timing was started once 0.2ml of concentrated ammonia/mouse was added onto the cotton ball. The number of coughs of each animal within 3 minutes was observed and recorded. Here, the medicament used for the Comparative Example group was the 4-[(2-amino-3,5-dibromobenzyl)amino]adamantan-1-ol hydrochloride (racemic) prepared in Comparative Example 1. Table 3. Effect on ammonia-induced coughing response in mice (x ± s, n=10)

SMILES | protective effect against acute lung injury in mice induced by oleic acid [1] | Overall lung pathology score [1] | Alveolar wall thickening Level 0 [1] | Inflammatory cell infiltration Level 0 [1] | Lung tissue necrosis Level 0 [1] | Alveolar wall thickening Level 1 [1] | Inflammatory cell infiltration Level 1 [1] | Lung tissue necrosis Level 1 [1] | Alveolar wall thickening Level 2 [1] | Inflammatory cell infiltration Level 2 [1] | Lung tissue necrosis Level 2 [1] | Alveolar wall thickening Level 3 [1] | Inflammatory cell infiltration Level 3 [1] | Lung tissue necrosis Level 3 [1] | Alveolar wall thickening Level 4 [1] | Inflammatory cell infiltration Level 4 [1] | Lung tissue necrosis Level 4 [1] | Expectoration amount in 90min (mm) [2] | Phenol red secretion (OD number) [3] | reduction of the number of coughs [4] | other results
Cl.Nc1c(Br)cc(Br)cc1CNC1C2CC3CC1CC(O)(C3)C2 (racemic) [Compound of Comparative Example, 4-[(2-amino-3,5-dibromobenzyl)amino]adamantan-1-ol hydrochloride (racemic)] | definite protective effect | 44* | 1 | 1 | 8 | 2 | 6 | 2 | 8 | 4 | 1 | 0 | 0 | 0 | 0 | 0 | 0 | 39.9±5.43 mm | 0.223±0.058 OD number | significantly reduce the number of coughs | Number of coughs (times) [4]: 25.7±6.40 times
Nc1c(Br)cc(Br)cc1CN[C@H]1CC[C@H](O)CC1 [Ambroxol hydrochloride] |  | 54 | 2 | 0 | 6 | 4 | 4 | 4 | 4 | 7 | 0 | 1 | 0 | 1 | 0 | 0 | 0 | 30.1±4.95 mm | 0.135±0.023 OD number | significantly reduce the number of coughs | Number of coughs (times) [4]: 32.7±8.55 times
Nc1c(Br)cc(Br)cc1CN[C@@H]1[C@@H]2C[C@@H]3C[C@H]1C[C@@](O)(C3)C2 [Compound of Formula I, trans-4-[(2-amino-3,5-dibromobenzyl)amino]adamantan-1-ol] | definite protective effect |  | 1 | 3 | 11 | 7 | 7 | 0 | 3 | 1 | 0 | 1 | 0 | 0 | 0 | 0 | 0 |  | 0.279±0.063 OD number | significantly reduce the number of coughs | Overall lung pathology score ([1]; 40 mg/kg): 23^**▲; Expectoration amount in 90min (mm) ([2]; 15 mg/kg): 45.9±6.79 mm; Number of coughs (times) ([4]; 15 mg/kg): 19.2±5.98 times

Reference: patent EP4310070A1, “USE OF TRANS AMANTADINE DERIVATIVE OR SALT THEREOF” (Chengdu Shibeikang Biomedical Technology Co., Ltd., priority 2021, dated 2022)
